Results taken from PubChem BioAssay (NCI).
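Protocol summary: plate cells (96-well), add compound at 5 concentrations, incubate 48 h, interpolate endpoints linearly. TGI: total growth inhibition.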

Legend:
Experiment in all cases: growth of human tumour cells (NCI), 48 h
MCF7 breast = tested on: MCF7 breast
HT29 colon = tested on: HT29 colon
NCI-H23 lung = tested on: NCI-H23 lung
MOLT-4 leukemia = tested on: MOLT-4 leukemia
SF-295 CNS = tested on: SF-295 CNS
HS 578T breast = tested on: HS 578T breast
UO-31 renal = tested on: UO-31 renal
M14 melanoma = tested on: M14 melanoma
UACC-257 melanoma = tested on: UACC-257 melanoma
HCC-2998 colon = tested on: HCC-2998 colon
SN12C renal = tested on: SN12C renal
HCT-116 colon = tested on: HCT-116 colon
DU-145 prostate = tested on: DU-145 prostate
KM12 colon = tested on: KM12 colon
SK-OV-3 ovarian = tested on: SK-OV-3 ovarian
HOP-62 NSCLC = tested on: HOP-62 NSCLC
NCI/ADR-RES ovarian = tested on: NCI/ADR-RES ovarian
EKVX NSCLC = tested on: EKVX NSCLC
OVCAR-5 ovarian = tested on: OVCAR-5 ovarian
CAKI-1 renal = tested on: CAKI-1 renal

Structure (SMILES) | TGI (MCF7 breast) [µM] | TGI (HT29 colon) [µM] | TGI (NCI-H23 lung) [µM] | TGI (MOLT-4 leukemia) [µM] | TGI (SF-295 CNS) [µM] | TGI (HS 578T breast) [µM] | TGI (UO-31 renal) [µM] | TGI (M14 melanoma) [µM] | TGI (UACC-257 melanoma) [µM] | TGI (HCC-2998 colon) [µM] | TGI (SN12C renal) [µM] | TGI (HCT-116 colon) [µM] | TGI (DU-145 prostate) [µM] | TGI (KM12 colon) [µM] | TGI (SK-OV-3 ovarian) [µM] | TGI (HOP-62 NSCLC) [µM] | TGI (NCI/ADR-RES ovarian) [µM] | TGI (EKVX NSCLC) [µM] | TGI (OVCAR-5 ovarian) [µM] | TGI (CAKI-1 renal) [µM]
CCCCc1ccc(Nc2nc(Cl)c3c(ncn3COCCOC(C)=O)n2)cc1 | 49.1 | 34.9 | 35.6 | 42.5 | 28.2 | 55.2 | 33.7 | 34 | 31.4 | 34.3 | 34.8 | 31.3 | 30.5 | 37.5 | 42.9 | 31.5 | 41.2 | 37.1 | 37.5 | 60.1
CC1=NC(=O)C(C)(c2ccccc2)N1CCc1ccccc1 (stereo not given) | > 100 | > 100 | > 100 | 94.7 | > 100 | > 100 | > 100 | > 100 | > 100 | > 100 | > 100 | > 100 | > 100 | > 100 | > 100 | > 100 | > 100 | > 100 | > 100 | > 100
Cc1ccc(NCC2CC/C(=C\c3ccc(Cl)cc3)C2=O)cc1 (stereo not given) | 26.7 | 49.1 | 45.7 | > 32.4 | > 100 | > 100 | 60 | 28.9 | 39.2 | > 69.8 | 33.3 | 26 | > 80.6 | 19 | > 100 | > 82.6 | > 80.1 | > 100 | > 54.5 | 21.7
CCOC(=O)/C(O)=C(/C=N\C(=S)Nc1ccccc1Cl)C(=O)OCC | > 100 | > 100 | > 100 | > 100 | > 100 | > 100 | > 100 | > 100 | > 100 | > 100 | > 100 | > 100 | > 100 | > 100 | > 100 | > 100 | > 100 | > 100 | > 100 | > 100
Fc1c(F)c(C(F)(F)F)c(F)c(F)c1N/N=C\c1c[nH]c2ccccc12 | 10.3 | 6.46 | 16.4 | 10.3 | 6.82 | 28.9 | 3.85 | 4.21 | 14.3 | 4.19 | 11.8 | 14.5 | 15.8 | 4.06 | 12.9 | 4.16 | 5.84 | 11.9 | 14.3 | 8.14
COc1ccc(/C=C(\Cl)c2ccc(OC)c(OC)c2)cc1OC | > 100 | > 100 | > 100 | > 100 | > 100 | > 100 | > 100 | > 100 | > 100 | > 100 | > 100 | > 100 | > 100 | > 100 | > 100 | > 100 | > 100 | > 100 | > 100 | > 100
O=C(O)C1C(C(=O)O)C2C(=O)C=CC1N2Cc1ccccc1 (stereo not given) | 25.7 | 12.6 | 7.71 | 9.18 | 23.4 | 6.1 | 3.72 | 5.99 | 11.6 | 7.71 | 5.47 | 15.2 | 6.17 | 12.7 | 17 | 10.5 | 7.58 | 16.3 | 20.5 | 14.5
C=C(c1ccccc1)C1ON(C)CCc2cc(OC)c(OC)cc21 (stereo not given) | 48.3 | > 100 | > 100 | > 100 | > 100 | > 100 | > 100 | > 100 | > 100 | > 100 | > 100 | > 100 | > 100 | > 100 | > 100 | > 100 | > 100 | > 100 | > 100 | > 100
O=c1c2cc(S(=O)(=O)Nc3ccccc3Cl)ccc2ncn1NS(=O)(=O)c1ccc(Br)cc1 | > 37.5 | > 37.5 | > 37.5 | > 37.5 | > 37.5 | > 37.5 | > 37.5 | > 37.5 | > 37.5 | > 37.5 | > 37.5 | > 37.5 | > 37.5 | > 37.5 | > 37.5 | > 37.5 | > 37.5 | > 37.5 | > 37.5 | > 37.5
COc1ccc(Br)c2c1CC(C(=O)O)CC2 (stereo not given) | > 100 | > 100 | > 100 | > 100 | > 100 | > 100 | > 100 | > 100 | > 100 | > 100 | > 100 | > 100 | > 100 | > 100 | > 100 | > 100 | > 100 | > 100 | > 100 | > 100
CCOC(=O)c1ccc(C(=O)OCC)n1-c1cc2cc(c1)CSCc1cc(cc(-n3c(C(=O)OCC)ccc3C(=O)OCC)c1)CSC2 | > 10 | > 10 | > 10 | > 10 | > 10 | > 10 | > 10 | > 10 | > 10 | > 10 | > 10 | > 10 | > 10 | > 10 | > 10 | > 10 | > 10 | > 10 | > 10 | > 10
